In paper PMC7248897, “Synthesis, Biological Evaluation and In Silico Studies of Certain Oxindole–Indole Conjugates as Anticancer CDK Inhibitors” (Molecules, 2020):

Assays:
Type in all cases: cell-based, human
[1] = test system: MCF-7 breast cancer cell line; assay: SRB anti-proliferative assay, MCF-7; settings: for IC50: Homo sapiens, MCF7, SRB assay, 48 h, mean ± S.D. from 3 separate experiments, read-out: IC50 MCF-7; for fold enhancement of anti-proliferative activity compared to 6a: MCF-7, ratio of IC50 values
Description: (§1) Cytotoxicity was assessed following the SRB colorimetric assay protocol, as reported earlier.
(§2) 1. Anti-proliferative action toward human breast cell lines […]
(§3) have been obtained from American Type Culture Collection (ATCC). The cells were maintained in Dulbecco's modified Eagle's medium (DMEM) supplemented with 10% heat inactivated fetal calf serum (GIBCO), penicillin (100 U/ml) and streptomycin (100 µg/ml) at 37 °C in humidified atmosphere containing 5% CO2. Cells at a concentration of […]
(§4) The anti-proliferative activity of the tested hybrids 6a-i, 9a-f and 11a, b was measured in vitro using the Sulfo-Rhodamine-B stain (SRB) assay. Briefly, Cells were inoculated in 96-well microtiter plate (5X104 cells/ well) for 24 h before treatment with the tested compounds to allow attachment of cell to the wall of the plate. Tested compounds were dissolved in DMSO at 1 mg/ml immediately before use and diluted to the appropriate volume just before addition to the cell culture. Different concentrations of tested compounds, doxorubicin and sorafenib were added to the cells (three wells were prepared for each individual dose). Cells were incubated with the compounds for 48 h at 37°C and in atmosphere of 5% CO2. After 48 h cells were fixed, washed, and stained for 30 min with 0.4% (w/v) SRB dissolved in 1% acetic acid. Unbound dye was removed by four washes with 1% acetic acid, and attached stain was recovered with Tris-EDTA buffer.
(§5) Color intensity was measured in an ELISA reader. […]

[2] = test system: MDA-MB-231 breast cancer cell line; assay: SRB anti-proliferative assay, MDA-MB-231; settings: for IC50: Homo sapiens, MDA-MB-231, SRB assay, 48 h, mean ± S.D. from 3 separate experiments, read-out: IC50 MDA-MB-231
Description: as §1, §2, §3, §4, §5

Bax = assay: ELISA of Bax level in MCF-7 cells; settings: for fold increase of Bax level: MCF-7, vs control; for Bax: MCF-7 cells treated at IC50, 48 h, control 38.3 ± 2.2
Description: Homogeneously, both conjugates were able to decrease the level of the anti-apoptotic Bcl-2 protein by 2.12-, and 1.7-fold, respectively (Table 3). As a more analytical variable, the Bax/Bcl-2 ratio was verified to be amplified by conjugates 6e and 6f, 18- and 12-fold, respectively.
(§6) Assessment of the levels for the proapoptotic markers (Bax, caspase-3, and p53) as well as the antiapoptotic marker (Bcl-2) was carried out through the use of ELISA colorimetric kits in accordance with the manufacturer’s instructions, as mentioned earlier. In addition, the pro-apoptotic potential of indoles 6e and 6f towards MCF-7 cells was evaluated through an FITC Annexin V apoptosis detection kit by flow cytometry, in accordance with the manufacturer’s protocol and referring to the reported procedures.
The levels of the pro-apoptotic markers (Bax, caspase-3 and p53) as well as the anti-apoptotic marker Bcl-2 were determined using ELISA colorimetric kits per the manufacturer’s instructions. Breast cancer MCF-7 cells were cultured as a monolayer in T-25 flasks and were seeded to attain 30% confluency prior to treatment. Cells were then […]
of treatment, cells were collected via trypsinization and centrifuged at 10,000 rpm. The pellet was then rinsed with PBS and lysed in RIPA lysis buffer at 4 °C for 45 min, then centrifuged at 14,000 rpm for 20 min to remove the cellular debris. Lysates were then collected and stored at −80 °C for later protein determination using Pierce BCA Protein Assay Kit according to manufacturer’s recommendations.
The cell lysate was diluted 10 times, and 100 μL ([…]) was added to the wells of four separate microtiter plates for the four ELISA kits that were pre-coated with primary antibodies specific to Bax, Bcl-2, caspase-3 and p53 proteins, respectively. A secondary biotin-linked antibody specific to the protein captured by the primary antibody was further added to bind the captured protein, forming a “sandwich” of specific antibodies around the desired protein in the cell lysate. The streptavidin-HRP complex was then used to bind the biotin-linked secondary antibody through its streptavidin portion. The HRP domain reacted with the added TMB substrate to form a colored product that measured at 450 nm by a plate reader ChroMate-4300 after the reaction was terminated via the addition of stop solution. […]
Cells were then rinsed in binding buffer and resuspended in 150
μL of binding buffer with the addition of 1 μL of DAPI (1 μg/μL in PBS). […]

MCF-7 cells = assay: Annexin V-FITC apoptosis assay; settings: for fold increase of entire apoptosis percentage: MCF-7, in comparison to the control (DMSO); for percent of Anx V-FITC positive cells (entire apoptosis): MCF-7 cells treated at IC50
Description: Anx V-based flow cytometry assay represents a helpful tactic for determining whether death of cells is attributed to programmed apoptosis or to uncontrolled necrosis.
This clearly verifies that cell death resulting from the anti-proliferative action of the target hybrids was attributable to physiological apoptosis and not to nonspecific necrosis.
as §6, with “procedures. […]” for “procedures.”
4. Annexin V-FITC Apoptosis Assay
Phosphatidylserine externalization was assayed using Annexin V-FITC/PI apoptosis detection kit (BD Biosciences, USA) according to the manufacturer’s instructions. Breast cancer MCF-7 cells were cultured to a monolayer then treated with hybrids 6e and 6f at their IC50 concentration. Briefly, cells were then harvested via trypsinization, and rinsed twice in PBS followed by binding buffer. Moreover, cells were re-suspended in 100 μL of binding buffer with the addition of 1 μL of FITC-Annexin V followed by an incubation period of 30 min at 4 °C. Cells were then rinsed in binding buffer and resuspended in 150 μL of binding buffer with the addition of 1 μL of DAPI (1 μg/μL in PBS). Cells were then analyzed using the flow cytometer BD FACS Canto II and the results were interpreted with FlowJo7.6.4 software (Tree Star, Ashland, OR, USA).

IC50 [1] [nM]	IC50 [2] [nM]	Structure (SMILES)	fold enhancement of anti-proliferative activity compared to 6a [1] [fold]	fold increase of Bax level (Bax) [fold]	Bax (Bax)	fold increase of entire apoptosis percentage (MCF-7 cells) [fold]	percent of Anx V-FITC positive cells (entire apoptosis) (MCF-7 cells) [%]	fold potency compared to staurosporine ([2]; MDA-MB-231, ratio of IC50 values) [fold]
390 ± 50	22500 ± 1670	Cc1ccc2c(c1)/C(=N/NC(=O)c1cc3ccccc3[nH]1)C(=O)N2 [6e]	8	8.5	325.3 ± 12.1 pg/mg of Total Protein	33.75	29.7	–
1850 ± 80	2850 ± 900	COc1ccc2c(c1)/C(=N/NC(=O)c1cc3ccccc3[nH]1)C(=O)N2 [6f]	1.7	7	268.7 ± 9.5 pg/mg of Total Protein	28.60	25.17	3.6
